# Test results reported in patent publication US8802856B2, “Quaternary ammonium diphenylmethyl compounds useful as muscarinic receptor antagonists” (Theravance Biopharma R&D IP, LLC, priority 2007, dated 2014).
# Columns and labels:
# [1] = test system: MCh response; test: Rat Einthoven assay (bronchoprotection); assay type: in vivo; settings: inhalation; for ID50 (bronchoprotection): 1.5 hrs post-dose
# Description: All test compounds are diluted in sterile water and are dosed via the inhalation route (IH). The rats (Sprague-Dawley, male, 250-350 g) are exposed to the aerosol generated from an LC Star Nebulizer Set and driven by a mixture of gases (5% CO2/95% atmospheric air). Each test compound solution is nebulized over a 10 minute time period in a pie shaped dosing chamber capable of holding six rats. At predetermined time points after inhalation of compound, the Einthoven assay is performed.
# Thirty minutes prior to the start of pulmonary evaluation, the animals are anesthetized with inactin (thiobutabarbital, 120 mg/kg IP). The jugular vein is catheterized with saline filled polyethylene catheters (PE-50) and used to infuse MCh. The trachea is then dissected and cannulated with a 14G needle and used for rat ventilation during pulmonary evaluation. Once surgery is complete, rats are ventilated using a piston respirator set at a stroke volume of 1 ml/100 g body weight but not exceeding 2.5 ml volume, and at a rate of 90 strokes per minute.
# The changes in pressure that occur with each breath are measured. Baseline values are collected for at least 2.5 minutes then rats are challenged non-cumulatively with 2-fold incremental increases of the bronchoconstrictor MCh (5, 10, 20, 40 and 80 μg/ml). The MCh is infused for 2.5 minutes from a syringe pump at a rate of 2 mL/kg/min. The animals are euthanized upon completion of the studies.
# Changes in ventilation pressure (cm H2O) in treated animals are expressed as % inhibition of MCh response relative to control animals.
# Standard muscarinic antagonists were evaluated in the rat Einthoven assay 1.5 hrs post-dose.
# Standards tiotropium and ipratropium were also evaluated 24 hr and/or 6 hr post-dose in the rat Einthoven assay. […] The observed loss of activity at this time point (6 hr) is consistent with its relatively short duration of action in the clinic.
# [2] = target: T1, hM3 muscarinic receptor subtype (Homo sapiens, UniProt P20309); test: Radioligand binding assay on muscarinic receptor subtypes ([3H]-NMS displacement)
# T1 construct: expressed in transfected cells; crude membranes prepared in house
# Description: CHO cell lines stably expressing cloned human hM1, hM2, hM3 and hM4 muscarinic receptor subtypes, respectively, were grown to near confluency in medium consisting of HAM's F-12 supplemented with 10% FBS and 250 μg/mL Geneticin. The cells were grown in a 5% CO2, 37° C. incubator and lifted with 2 mM EDTA in dPBS. Cells were collected by 5 minute centrifugation at 650×g, and cell pellets were either stored frozen at −80° C. or membranes were prepared immediately. For membrane preparation, cell pellets were resuspended in lysis buffer and homogenized with a Polytron PT-2100 tissue disrupter (Kinematica AG; 20 seconds×2 bursts). Crude membranes were centrifuged at 40,000×g for 15 minutes at 4° C. […] The protein concentration of the membrane suspension was determined by the method described in Lowry, O. et al., Journal of Biochemistry 193:265 (1951). […]
# Radioligand binding assays were performed in 96-well microtiter plates in a total assay volume of […]. […] Filter plates were rinsed three times with wash buffer (10 mM HEPES) to remove unbound radioactivity. […] The plates were then counted in a PerkinElmer Topcount liquid scintillation counter (PerkinElmer Inc., Wellesley, Mass.). Binding data were analyzed by nonlinear regression analysis with the GraphPad Prism Software package (GraphPad Software, Inc., San Diego, Calif.) using the one-site competition model. […]
# [3] = test system: pilocarpine-induced salivation; test: Rat antisialagogue assay; assay type: in vivo; settings: evaluated at 1, 6, and 24 hr post-dose
# Description: Rats (Sprague-Dawley, male, 250-350 g) are dosed, anesthetized and cannulated as described for Assay 3. At predetermined time points and after surgery, animals are placed on their dorsal side at a 200 incline with their head in a downward slope. A pre-weighed gauze pad is inserted in the animal's mouth and the muscarinic agonist pilocarpine (PILO) (3 mg/kg, iv.) is administered. Saliva produced during 10 minutes post-PILO is measured gravimetrically by determining the weight of the gauze pad before and after PILO. Antisialagogue effects are expressed as % inhibition of salivation relative to control animals.
# The rat antisialagogue assay was developed to assess systemic exposure and calculate the lung selectivity index (LSI) of test compounds. The standard, tiotropium, was evaluated in this model at 1, 6, and 24 hr post-dose. […] This finding is consistent with the peak effects observed in the Einthoven assay.
# This model is a modified version of the procedure described in Rechter, “Estimation of anticholinergic drug effects in mice by antagonism against pilocarpine-induced salivation” Ata Pharmacol Toxicol 24:243-254 (1996). The mean weight of saliva in vehicle-treated animals, at each pre-treatment time, is calculated and used to compute % inhibition of salivation, at the corresponding pre-treatment time, at each dose.
# T1 sequence (P20309 whole entry): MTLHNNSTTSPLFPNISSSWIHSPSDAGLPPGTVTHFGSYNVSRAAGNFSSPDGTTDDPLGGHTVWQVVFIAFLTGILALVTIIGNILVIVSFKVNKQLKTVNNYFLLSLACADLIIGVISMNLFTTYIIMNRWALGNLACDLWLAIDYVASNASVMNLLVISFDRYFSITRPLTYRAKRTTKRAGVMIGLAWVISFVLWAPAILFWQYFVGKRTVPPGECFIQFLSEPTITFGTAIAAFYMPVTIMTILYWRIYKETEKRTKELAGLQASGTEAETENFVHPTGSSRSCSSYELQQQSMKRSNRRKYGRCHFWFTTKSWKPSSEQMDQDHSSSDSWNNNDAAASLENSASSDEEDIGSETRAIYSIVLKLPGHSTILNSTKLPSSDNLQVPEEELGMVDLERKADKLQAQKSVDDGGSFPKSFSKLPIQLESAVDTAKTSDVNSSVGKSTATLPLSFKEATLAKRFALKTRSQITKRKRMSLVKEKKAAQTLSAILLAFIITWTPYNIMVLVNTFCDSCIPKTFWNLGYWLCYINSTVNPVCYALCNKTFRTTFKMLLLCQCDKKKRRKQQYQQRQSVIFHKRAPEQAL
compound,measurement,setting,value
CC(C)[N+]1(C)[C@@H]2CC[C@H]1C[C@@H](OC(=O)C(CO)c1ccccc1)C2 (stereo partly shown) [ipratropium],fold less potent 6-hr post-dose compared to 1.5 hr potency,[1]; 10 and 30 μg/ml,about 3 fold
same,ID50 (bronchoprotection),[1],4.4 µg/mL
C[N+]1(C)CCC(OC(=O)C(O)(c2ccccc2)C2CCCC2)C1 (stereo not shown) [glycopyrrolate],ID50 (bronchoprotection),[1],15 µg/mL
"C[N+]1(CCCSc2ccccc2)CC[C@@H](C(C(N)=O)(c2ccccc2)c2ccccc2)C1 (stereo partly drawn) [Example 2, (S)-3-(Carbamoyldiphenylmethyl)-1-methyl-1-(3-phenylsulfanylpropyl)pyrrolidinium]",Ki,[2],< 0.5 nM
C[N+]1(C)[C@@H]2C[C@@H](OC(=O)C(O)(c3cccs3)c3cccs3)C[C@H]1[C@@H]1O[C@@H]12 [tiotropium],time post dose at which most potent at inhibiting pilocarpine-induced salivation,[3],6 h
same,6 hr versus 24 hr potency values,[1],not significantly different
same,fold more potent at 6 hr and 24 hr compared to 1.5 hr potency,[1],about 2 fold
same,onset of effect,[1],slow onset of effect
same,time of peak bronchoprotection post-dose,[1],6 h
same,ID50 (bronchoprotection),[1],6 µg/mL
